Molecular target: Glycogen synthase kinase-3 beta (Homo sapiens, UniProt P49841)
Assay: Inhibition of human recombinant GSK3-beta

Glycogen synthase kinase-3 beta, sequence (P49841 whole entry): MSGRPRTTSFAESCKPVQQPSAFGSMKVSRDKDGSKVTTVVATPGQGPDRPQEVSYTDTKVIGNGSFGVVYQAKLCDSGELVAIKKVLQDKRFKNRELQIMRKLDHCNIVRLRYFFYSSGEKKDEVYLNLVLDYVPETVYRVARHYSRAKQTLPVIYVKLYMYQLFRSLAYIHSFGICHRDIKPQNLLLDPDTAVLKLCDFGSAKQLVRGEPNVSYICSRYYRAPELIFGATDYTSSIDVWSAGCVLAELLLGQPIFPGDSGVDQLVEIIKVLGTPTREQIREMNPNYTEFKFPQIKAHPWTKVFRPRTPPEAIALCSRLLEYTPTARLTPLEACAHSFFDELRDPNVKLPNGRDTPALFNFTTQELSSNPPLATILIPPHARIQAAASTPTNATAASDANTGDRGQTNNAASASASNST

IC50: 37 nM
SMILES: CN(C)c1nc2ccc1CCCn1cc(c3ccccc31)C1=C(C(=O)NC1=O)c1cn(c3ccccc13)CCC2

— ChEMBL document CHEMBL1139192, “Novel bis(indolyl)maleimide pyridinophanes that are potent, selective inhibitors of glycogen synthase kinase-3” (Bioorg Med Chem Lett, 2007)
